Reference: patent publication US12303509B2, “Compounds for the treatment of BRAF-associated diseases and disorders” (Pfizer Inc., priority 2020, dated 2025)

What was measured:
P-gp (MDR1) = P-gp (MDR1) (Homo sapiens (Human), UniProt P08183); experiment: MDR1 LLC-PK1 permeability assay: efflux ratio; assay type: in vitro ADME; details: pig
Text: (§1) Final organic concentration in the assay was 1%.

[1] = PK (free brain-to-free plasma ratio) (mouse); assay type: in vivo; details: male CD-1 mice, oral gavage 10 mg/kg, unbound brain-to-unbound plasma, read-out: B/P ratio (free)
Description: The ability of representative compounds to penetrate the BBB in mice was determined by evaluating the unbound brain-to-unbound plasma (also referred to as free brain-to-free plasma) concentration ratio in male CD-1 mice.
Brain compound levels were generated from oral mouse PK dosing with typical sampling times of 2, 4, 8, 12 and 24 hours post oral gavage dosing at 10 mg/kg. Brain samples were stored at −20±5° C. prior to analysis. Concentrations of test compound in mouse brain homogenate were determined by liquid chromatography tandem mass spectrometry (LC-MS/MS) following protein precipitation with acetonitrile. A 12-point calibration curve, ranging from 0.5 to 10,000 ng/mL, was prepared in duplicate. A solution of 400 μg/mL of test compound in dimethyl sulfoxide (DMSO) was serially diluted (3-fold) in 100% DMSO, and then 2.5 μL of each standard solution was added to 100 μL of naïve male CD-1 mice brain homogenate. To mimic the extraction in the standard curve, 2.5 μL of DMSO was added to all test samples. Both calibration and test brain homogenate samples were spiked with 10 μL of an IS (1 μg/mL of a structural analog). Brain homogenate was generated by adding 0.75 mL of 4:1 water:MeOH to each brain sample followed by homogenization for 1 minute with bead beater tubes a 6 m/s using an MP Fast Prep-24®. Proteins were precipitated from 100 μL of brain homogenate sample by the addition of 300 μL of acetonitrile. Samples were vortex-mixed for 5 minutes and spun in an Allegra X-12R centrifuge (Beckman Coulter, Fullerton, CA; SX4750A rotor) for 15 min at approximately 1,500×g at 4° C. A 100 μL aliquot of each supernatant was transferred via a 550 μL Personal Pipettor (Apricot Designs, Monrovia, CA) to 96-well plates and diluted 1:1 with HPLC grade water. The resulting plates were sealed with aluminum for LC-MS/MS analysis.
Brain-to-plasma ratios were calculated using the concentration of compound measured in the brain divided by the concentration of compound measured in the plasma. Brain-to-plasma ratios were always generated from a single animal and time point. Free brain-to-free plasma ratios were calculated by multiplying the brain-to-plasma ratio by the in vitro brain homogenate free fraction divided by the in vitro plasma free fraction using the following equation: (B/P)*(Bfu/Pfu). Table C provides the free brain-to-free plasma ratios of compounds disclosed herein.

A375 cells = experiment: Cellular phospho-ERK inhibition assay in A375 cells; assay type: cell-based; details: Homo sapiens, A-375, A375 cells (head prints A357), 2 hours treatment, read-out: A357 cell IC50
In short: (§2)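 A375 (DMEM) or H1755 (RPMI) cells in 10% FBS treated 2 h at 37 °C with 9-point series, 66 pM–10 μM, 0.25% DMSO. Phospho-ERK1/2 (Thr202/Tyr204) measured by In Cell Western, normalised to GAPDH and to DMSO and 10 μM binimetinib controls; IC50 by 4-parameter fit.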

[2] = MDR1 LLC-PK1 and BCRP MDCKII permeability assay: permeability coefficient (Papp); assay type: in vitro ADME
Text: as §1

H1755 cells = experiment: Cellular phospho-ERK inhibition assay in H1755 cells; assay type: cell-based; details: Homo sapiens, NCI-H1755, 2 hours treatment, read-out: H1755 Cell IC50
In short: as §2

Chain of P-gp (MDR1) (P08183 whole entry, species assumed): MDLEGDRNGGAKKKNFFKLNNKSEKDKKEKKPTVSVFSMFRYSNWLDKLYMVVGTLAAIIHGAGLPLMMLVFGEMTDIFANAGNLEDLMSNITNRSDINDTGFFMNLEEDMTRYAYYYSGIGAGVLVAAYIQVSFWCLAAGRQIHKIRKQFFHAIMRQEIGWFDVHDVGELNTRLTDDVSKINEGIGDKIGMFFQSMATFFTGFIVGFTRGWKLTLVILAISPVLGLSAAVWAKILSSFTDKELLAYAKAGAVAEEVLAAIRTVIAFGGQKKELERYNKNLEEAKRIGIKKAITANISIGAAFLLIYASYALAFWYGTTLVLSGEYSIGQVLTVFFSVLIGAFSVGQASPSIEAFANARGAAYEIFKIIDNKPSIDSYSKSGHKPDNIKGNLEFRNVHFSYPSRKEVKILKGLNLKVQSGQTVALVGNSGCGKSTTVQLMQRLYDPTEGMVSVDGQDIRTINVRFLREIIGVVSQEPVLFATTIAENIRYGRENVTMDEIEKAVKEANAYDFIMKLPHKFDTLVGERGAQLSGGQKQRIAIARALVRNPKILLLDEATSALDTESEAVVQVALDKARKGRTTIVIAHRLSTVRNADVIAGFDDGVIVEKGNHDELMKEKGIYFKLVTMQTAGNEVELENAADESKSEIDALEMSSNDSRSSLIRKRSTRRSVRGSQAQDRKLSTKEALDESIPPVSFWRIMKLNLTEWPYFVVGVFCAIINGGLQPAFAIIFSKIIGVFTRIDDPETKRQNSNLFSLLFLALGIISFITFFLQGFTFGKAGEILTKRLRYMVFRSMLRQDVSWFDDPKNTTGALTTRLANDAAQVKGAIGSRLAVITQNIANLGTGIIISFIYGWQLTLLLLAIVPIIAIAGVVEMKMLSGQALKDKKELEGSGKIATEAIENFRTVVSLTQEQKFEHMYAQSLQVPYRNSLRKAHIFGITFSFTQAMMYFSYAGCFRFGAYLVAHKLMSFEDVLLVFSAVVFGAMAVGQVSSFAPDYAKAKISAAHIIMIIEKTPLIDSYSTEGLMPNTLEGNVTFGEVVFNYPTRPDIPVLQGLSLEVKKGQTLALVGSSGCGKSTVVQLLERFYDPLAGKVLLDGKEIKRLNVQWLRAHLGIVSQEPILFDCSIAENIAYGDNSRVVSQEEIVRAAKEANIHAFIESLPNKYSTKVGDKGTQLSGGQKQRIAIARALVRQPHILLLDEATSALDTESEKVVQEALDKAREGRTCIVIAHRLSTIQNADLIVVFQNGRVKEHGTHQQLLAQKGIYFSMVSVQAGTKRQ

efflux ratio at 2 h, 1 µM (P-gp (MDR1))	Kp [1]	IC50 (A375 cells) [µM]	Papp at 2 h, 1 µM [2] [nm/s]	IC50 (H1755 cells) [µM]	Structure (SMILES)
1.5	0.75 to 0.93	0.006	320	0.078	Cn1cnc2ccc(Nc3c(F)ccc(NS(=O)(=O)N4CC5CC4C5)c3Cl)c(F)c2c1=O [Example 13, N-(2-chloro-4-fluoro-3-((5-fluoro-3-methyl-4-oxo-3,4-dihydroquinazolin-6-yl)amino)phenyl)-2-azabicyclo[2.1.1]hexane-2-sulfonamide]
3.2	0.13 to 0.39	0.003	280	0.021	Cn1cnc2ccc(Nc3c(F)ccc(NS(=O)(=O)N4CC[C@@H](F)C4)c3Cl)c(F)c2c1=O [Example 14, (R)-N-(2-chloro-4-fluoro-3-((5-fluoro-3-methyl-4-oxo-3,4-dihydroquinazolin-6-yl)amino)phenyl)-3-fluoropyrrolidine-1-sulfonamide]
